US20230085307A1, “PYRIDAZINONE COMPOUND AND HERBICIDE” (NISSAN CHEMICAL CORPORATION, priority 2019, published 2023)

Columns and labels:
[1] = tested on: late watergrass; test: Test Example 1: herbicidal activity, application before weed generation under submerged conditions (Table 16, symbol A); type: in vivo, late watergrass (Echinochloa oryzicola)
Method in brief: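 Alluvial soil was flooded to 4 cm depth, weed seeds were sown mixed and 2.5-leaf rice seedlings were transplanted. On sowing day, the compound's emulsion, diluted in water to a set dose, was applied to the water surface. Plants grew at 25–30 °C and were scored 0–5 after three weeks.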

[2] = tested on: Japanese bulrush; test: Test Example 2: herbicidal activity, application during weed generation under submerged conditions (Table 17, symbol B); type: in vivo, Japanese bulrush (Schoenoplectus juncoides); conditions: application during weed generation, submerged conditions
Method in brief: (§1)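 3-wk visual-criteria score after one water-surface dose. Emulsion formulation, water-diluted to set rate; applied at 1–2 leaf stage; alluvial soil, 4 cm standing water; seeds co-sown; greenhouse 25–30° C.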

[3] = tested on: oval-leafed pondweed; test: Test Example 2: herbicidal activity, application during weed generation under submerged conditions (Table 17, symbol C); type: in vivo, oval-leafed pondweed (Monochoria vaginalis); conditions: application during weed generation, submerged conditions
Method in brief: as §1

[4] = tested on: southern crabgrass; test: Test Example 4: herbicidal effect by soil treatment (Table 19, symbol F); type: in vivo, southern crabgrass (Digitaria ciliaris)
Method in brief: (§2)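 Soil-surface application: an emulsion agent diluted with water to the predetermined dose is sprayed uniformly over seeds lying under roughly 1.5 cm of sterilized diluvial soil. Boxes stay in a greenhouse at 25° C. to 30° C. Three weeks later, each species is graded on previously defined criteria.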

[5] = tested on: green foxtail; test: Test Example 4: herbicidal effect by soil treatment (Table 19, symbol G); type: in vivo, green foxtail (Setaria viridis)
Method in brief: as §2

[6] = tested on: blackgrass; test: Test Example 4: herbicidal effect by soil treatment (Table 19, symbol J); type: in vivo, blackgrass (Alopecurus myosuroides)
Method in brief: as §2

[7] = tested on: Italian ryegrass; test: Test Example 4: herbicidal effect by soil treatment (Table 19, symbol K); type: in vivo, Italian ryegrass (Lolium multiflorum)
Method in brief: as §2

[8] = tested on: redroot pigweed; test: Test Example 4: herbicidal effect by soil treatment (Table 19, symbol N); type: in vivo, redroot pigweed (Amaranthus retroflexus)
Method in brief: as §2

[9] = tested on: chickweed; test: Test Example 4: herbicidal effect by soil treatment (Table 19, symbol P); type: in vivo, common chickweed (Stellaria media)
Method in brief: as §2

[10] = tested on: persian speedwell; test: Test Example 4: herbicidal effect by soil treatment (Table 19, symbol R); type: in vivo, Persian speedwell (Veronica persica)
Method in brief: as §2

[11] = tested on: southern crabgrass; test: Test Example 5: herbicidal effect by foliage application, plastic box (Table 20, symbol F); type: in vivo, southern crabgrass (Digitaria ciliaris); conditions: foliage application, 3 weeks after application
Method in brief: (§3)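 Sow seeds spot-wise in sterilized diluvial soil; cover with ~1.5 cm soil. Grow 14 days in greenhouse, 25° C. to 30° C. Spray foliage with emulsion diluted to predetermined amount. Rate effect after 3 weeks.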

[12] = tested on: barnyard grass; test: Test Example 5: herbicidal effect by foliage application, plastic box (Table 20, symbol H); type: in vivo, barnyard grass (Echinochloa crus-galli); conditions: foliage application, 3 weeks after application
Method in brief: as §3

[13] = tested on: Italian ryegrass; test: Test Example 5: herbicidal effect by foliage application, plastic box (Table 20, symbol K); type: in vivo, Italian ryegrass (Lolium multiflorum); conditions: foliage application, 3 weeks after application
Method in brief: as §3

[14] = tested on: lambsquarters; test: Test Example 5: herbicidal effect by foliage application, plastic box (Table 20, symbol O); type: in vivo, lambsquarters (Chenopodium album); conditions: foliage application, 3 weeks after application
Method in brief: as §3

[15] = tested on: persian speedwell; test: Test Example 5: herbicidal effect by foliage application, plastic box (Table 20, symbol R); type: in vivo, Persian speedwell (Veronica persica); conditions: foliage application, 3 weeks after application
Method in brief: as §3

C#CC(C)Oc1ccc(-c2sc3ccccc3c2-c2c(O)c(C)nn(C)c2=O)cc1 (racemic) [1-217]
Herbicidal effect on A: late watergrass (grade 0-5) ([1]; 320 g/ha applied herbicide): 4 (Herbicidal rate of 70% or more and less than 90%) | herbicidal effect rating, B: Japanese bulrush ([2]; AAH 320 g/ha): 3 (Herbicidal rate of 40% or more and less than 70%) | herbicidal effect rating, C: oval-leafed pondweed ([3]; AAH 320 g/ha): 3 (Herbicidal rate of 40% or more and less than 70%) | F: southern crabgrass, herbicidal effect rating ([4]; AAH 320 g/ha): 0 (Herbicidal rate of 5% or less (almost no effect)) | G: green foxtail, herbicidal effect rating ([5]; AAH 320 g/ha): 3 (Herbicidal rate of 40% or more and less than 70%) | J: blackgrass, herbicidal effect rating ([6]; AAH 320 g/ha): 0 (Herbicidal rate of 5% or less (almost no effect)) | K: Italian ryegrass, herbicidal effect rating ([7]; AAH 320 g/ha): 0 (Herbicidal rate of 5% or less (almost no effect)) | N: redroot pigweed, herbicidal effect rating ([8]; AAH 320 g/ha): 4 (Herbicidal rate of 70% or more and less than 90%) | P: chickweed, herbicidal effect rating ([9]; AAH 320 g/ha): 5 (Herbicidal rate of 90% or more (almost completely withered)) | R: persian speedwell, herbicidal effect rating ([10]; AAH 320 g/ha): 5 (Herbicidal rate of 90% or more (almost completely withered)) | effect on southern crabgrass (F) ([11]; 320 g/ha): 4 (Herbicidal rate of 70% or more and less than 90%) | effect on barnyard grass (H) ([12]; 320 g/ha): 5 (Herbicidal rate of 90% or more (almost completely withered)) | effect on Italian ryegrass (K) ([13]; 320 g/ha): 5 (Herbicidal rate of 90% or more (almost completely withered)) | effect on lambsquarters (O) ([14]; 320 g/ha): 5 (Herbicidal rate of 90% or more (almost completely withered)) | effect on persian speedwell (R) ([15]; 320 g/ha): 5 (Herbicidal rate of 90% or more (almost completely withered))

C#CC(C)Oc1ccc(-c2sc3ccccc3c2-c2c(OCOCCOC)c(C)nn(C)c2=O)cc1 (racemic) [1-218]
Herbicidal effect on A: late watergrass (grade 0-5) ([1]; 100 g/ha applied herbicide): 4 (Herbicidal rate of 70% or more and less than 90%) | herbicidal effect rating, B: Japanese bulrush ([2]; AAH 100 g/ha): 3 (Herbicidal rate of 40% or more and less than 70%) | herbicidal effect rating, C: oval-leafed pondweed ([3]; AAH 100 g/ha): 4 (Herbicidal rate of 70% or more and less than 90%) | F: southern crabgrass, herbicidal effect rating ([4]; AAH 187 g/ha): 0 (Herbicidal rate of 5% or less (almost no effect)) | G: green foxtail, herbicidal effect rating ([5]; AAH 187 g/ha): 3 (Herbicidal rate of 40% or more and less than 70%) | J: blackgrass, herbicidal effect rating ([6]; AAH 187 g/ha): 0 (Herbicidal rate of 5% or less (almost no effect)) | K: Italian ryegrass, herbicidal effect rating ([7]; AAH 187 g/ha): 0 (Herbicidal rate of 5% or less (almost no effect)) | N: redroot pigweed, herbicidal effect rating ([8]; AAH 187 g/ha): 2 (Herbicidal rate of 20% or more and less than 40%) | P: chickweed, herbicidal effect rating ([9]; AAH 187 g/ha): 1 (Herbicidal rate of 5% or more and less than 20%) | R: persian speedwell, herbicidal effect rating ([10]; AAH 187 g/ha): 5 (Herbicidal rate of 90% or more (almost completely withered)) | effect on southern crabgrass (F) ([11]; 187 g/ha): 0 (Herbicidal rate of 5% or less (almost no effect)) | effect on barnyard grass (H) ([12]; 187 g/ha): 3 (Herbicidal rate of 40% or more and less than 70%) | effect on Italian ryegrass (K) ([13]; 187 g/ha): 2 (Herbicidal rate of 20% or more and less than 40%) | effect on lambsquarters (O) ([14]; 187 g/ha): 4 (Herbicidal rate of 70% or more and less than 90%) | effect on persian speedwell (R) ([15]; 187 g/ha): 5 (Herbicidal rate of 90% or more (almost completely withered))

COCC(C)Oc1ccc(-c2sc3ccccc3c2-c2c(O)c(C)nn(C)c2=O)cc1 (racemic) [1-228]
Herbicidal effect on A: late watergrass (grade 0-5) ([1]; 320 g/ha applied herbicide): 5 (Herbicidal rate of 90% or more (almost completely withered)) | herbicidal effect rating, B: Japanese bulrush ([2]; AAH 320 g/ha): 3 (Herbicidal rate of 40% or more and less than 70%) | herbicidal effect rating, C: oval-leafed pondweed ([3]; AAH 320 g/ha): 3 (Herbicidal rate of 40% or more and less than 70%) | F: southern crabgrass, herbicidal effect rating ([4]; AAH 320 g/ha): 4 (Herbicidal rate of 70% or more and less than 90%) | G: green foxtail, herbicidal effect rating ([5]; AAH 320 g/ha): 5 (Herbicidal rate of 90% or more (almost completely withered)) | J: blackgrass, herbicidal effect rating ([6]; AAH 320 g/ha): 4 (Herbicidal rate of 70% or more and less than 90%) | K: Italian ryegrass, herbicidal effect rating ([7]; AAH 320 g/ha): 4 (Herbicidal rate of 70% or more and less than 90%) | N: redroot pigweed, herbicidal effect rating ([8]; AAH 320 g/ha): 5 (Herbicidal rate of 90% or more (almost completely withered)) | P: chickweed, herbicidal effect rating ([9]; AAH 320 g/ha): 4 (Herbicidal rate of 70% or more and less than 90%) | R: persian speedwell, herbicidal effect rating ([10]; AAH 320 g/ha): 5 (Herbicidal rate of 90% or more (almost completely withered)) | effect on southern crabgrass (F) ([11]; 320 g/ha): 5 (Herbicidal rate of 90% or more (almost completely withered)) | effect on barnyard grass (H) ([12]; 320 g/ha): 5 (Herbicidal rate of 90% or more (almost completely withered)) | effect on Italian ryegrass (K) ([13]; 320 g/ha): 4 (Herbicidal rate of 70% or more and less than 90%) | effect on lambsquarters (O) ([14]; 320 g/ha): 5 (Herbicidal rate of 90% or more (almost completely withered)) | effect on persian speedwell (R) ([15]; 320 g/ha): 5 (Herbicidal rate of 90% or more (almost completely withered))

CCC(COc1ccc(-c2sc3ccccc3c2-c2c(O)c(C)nn(C)c2=O)cc1)OC (racemic) [1-230]
Herbicidal effect on A: late watergrass (grade 0-5) ([1]; 320 g/ha applied herbicide): 5 (Herbicidal rate of 90% or more (almost completely withered)) | herbicidal effect rating, B: Japanese bulrush ([2]; AAH 320 g/ha): 3 (Herbicidal rate of 40% or more and less than 70%) | herbicidal effect rating, C: oval-leafed pondweed ([3]; AAH 320 g/ha): 4 (Herbicidal rate of 70% or more and less than 90%) | F: southern crabgrass, herbicidal effect rating ([4]; AAH 320 g/ha): 0 (Herbicidal rate of 5% or less (almost no effect)) | G: green foxtail, herbicidal effect rating ([5]; AAH 320 g/ha): 4 (Herbicidal rate of 70% or more and less than 90%) | J: blackgrass, herbicidal effect rating ([6]; AAH 320 g/ha): 4 (Herbicidal rate of 70% or more and less than 90%) | K: Italian ryegrass, herbicidal effect rating ([7]; AAH 320 g/ha): 4 (Herbicidal rate of 70% or more and less than 90%) | N: redroot pigweed, herbicidal effect rating ([8]; AAH 320 g/ha): 5 (Herbicidal rate of 90% or more (almost completely withered)) | P: chickweed, herbicidal effect rating ([9]; AAH 320 g/ha): 2 (Herbicidal rate of 20% or more and less than 40%) | R: persian speedwell, herbicidal effect rating ([10]; AAH 320 g/ha): 5 (Herbicidal rate of 90% or more (almost completely withered)) | effect on southern crabgrass (F) ([11]; 320 g/ha): 5 (Herbicidal rate of 90% or more (almost completely withered)) | effect on barnyard grass (H) ([12]; 320 g/ha): 5 (Herbicidal rate of 90% or more (almost completely withered)) | effect on Italian ryegrass (K) ([13]; 320 g/ha): 4 (Herbicidal rate of 70% or more and less than 90%) | effect on lambsquarters (O) ([14]; 320 g/ha): 5 (Herbicidal rate of 90% or more (almost completely withered)) | effect on persian speedwell (R) ([15]; 320 g/ha): 5 (Herbicidal rate of 90% or more (almost completely withered))

Cc1nn(C)c(=O)c(-c2c(-c3ccc(OCCBr)cc3)sc3ccccc23)c1O [1-204]
Herbicidal effect on A: late watergrass (grade 0-5) ([1]; 320 g/ha applied herbicide): 3 (Herbicidal rate of 40% or more and less than 70%) | herbicidal effect rating, B: Japanese bulrush ([2]; AAH 320 g/ha): 3 (Herbicidal rate of 40% or more and less than 70%) | herbicidal effect rating, C: oval-leafed pondweed ([3]; AAH 320 g/ha): 2 (Herbicidal rate of 20% or more and less than 40%) | F: southern crabgrass, herbicidal effect rating ([4]; AAH 320 g/ha): 0 (Herbicidal rate of 5% or less (almost no effect)) | G: green foxtail, herbicidal effect rating ([5]; AAH 320 g/ha): 0 (Herbicidal rate of 5% or less (almost no effect)) | J: blackgrass, herbicidal effect rating ([6]; AAH 320 g/ha): 0 (Herbicidal rate of 5% or less (almost no effect)) | K: Italian ryegrass, herbicidal effect rating ([7]; AAH 320 g/ha): 0 (Herbicidal rate of 5% or less (almost no effect)) | N: redroot pigweed, herbicidal effect rating ([8]; AAH 320 g/ha): 3 (Herbicidal rate of 40% or more and less than 70%) | P: chickweed, herbicidal effect rating ([9]; AAH 320 g/ha): 0 (Herbicidal rate of 5% or less (almost no effect)) | R: persian speedwell, herbicidal effect rating ([10]; AAH 320 g/ha): 4 (Herbicidal rate of 70% or more and less than 90%) | effect on southern crabgrass (F) ([11]; 320 g/ha): 4 (Herbicidal rate of 70% or more and less than 90%) | effect on barnyard grass (H) ([12]; 320 g/ha): 3 (Herbicidal rate of 40% or more and less than 70%) | effect on Italian ryegrass (K) ([13]; 320 g/ha): 3 (Herbicidal rate of 40% or more and less than 70%) | effect on lambsquarters (O) ([14]; 320 g/ha): 4 (Herbicidal rate of 70% or more and less than 90%) | effect on persian speedwell (R) ([15]; 320 g/ha): 5 (Herbicidal rate of 90% or more (almost completely withered))
